Results from patent publication US20230107642A1 (Erasca, Inc., priority 2020, published 2023).

Molecular target: T1, Cys12 of the KRAS 4B G12C protein (Homo sapiens, UniProt P01116, G12C)
T1 construct: This protein contained 188 amino acids in total, including an N-terminal 6-Histidine tag; made in house; host or cells: E. coli BL21
Test: In vitro covalent adduct formation (CAF) assay, LC-MS intact mass
Assay type: binding
Conditions: for % CAF 10 uM @ 60 min: 10 uM compound
Method: This Example provides a protocol for assessing covalent adduct formation (CAF) between the compounds of the present application and KRAS.
In vitro covalent adduct formation assay: Covalent adduct formation (CAF) reactions between Cys12 of the KRAS 4B G12C protein and some of the compounds of Tables 1 to 4 were measured in vitro using liquid chromatography-mass spectrometry (LC-MS).
Recombinant Human KRAS 4B protein containing the G12C mutation was used in compound screening experiments. This protein contained 188 amino acids in total, including an N-terminal 6-Histidine tag, followed by a Tobacco Etch Virus (TEV) tag, followed by residues 1-169 of the native KRAS 4B sequence. The exact mass of the protein was 21,310 Da as determined by mass spectrometry. The full amino acid sequence is shown below: […]
The recombinant protein was expressed in E. coli BL21 cells and purified using affinity chromatography via a Ni-NTA column. Protein stocks were nucleotide-exchanged to >95% GDP, concentrated to 4 mg/mL, and stored at −80° C. in storage buffer (50 mM HEPES pH 7.4, 50 mM NaCl, 5 mM MgCl2, 1 mM DTT). Pure KRAS 4B G12C protein was diluted to a concentration of 5 μM in Tris Buffered Saline, pH 7.4. The compounds were dissolved in DMSO and added to the diluted protein to make a 10 μM concentration. The total DMSO concentration in the reaction was 4%. The reaction was mixed by pipetting and incubated at 22° C. for one hour. Aliquots of the reaction were taken over time and diluted 2:1 in 0.1% formic acid. The intact mass of the protein samples was measured by LC-MS using a QExactive+ mass spectrometer (Thermo Scientific). An amount of 500 ng total protein was injected onto a C8 reverse phase column, eluted with a seven-minute gradient of 30%-90% acetonitrile/0.1% formic acid, and analyzed for intact mass by the mass spectrometer. Adducts identified were confirmed to be within 1 Dalton of the expected mass, and the relative ratios of free:adduct protein were used to quantify the percentage of protein bound by the compound. CAF reactions were run in duplicate, with a typical variability of ±5%.

Row | Compound | % CAF 10 uM @ 60 min (60 min) [%] | also measured
1 | C=CC(=O)N1C2CCC1CN(c1nc(=O)n3c4c(c(-c5cc(Cl)c(F)cc5F)c(C(F)(F)F)cc14)SCC1(COC1)C3)C2 [Example 1402, (S)-8′-((1R,5S)-8-acryloyl-3,8-diazabicyclo[3.2.1]octan-3-yl)-11′-(5-chloro-2,4-difluorophenyl)-10′-(trifluoromethyl)-2′H,4′H,6′H-spiro[oxetane-3,3′-[1,4]thiazepino[2,3,4-ij]quinazolin-6′-one] | 6.8 | –
2 | C=CC(=O)N1[C@H](C)CN(c2nc(=O)n3c4c(c(-c5ccc(F)cc5)c(C(F)(F)F)cc24)SC[C@H](N2CCOCC2)C3)C[C@@H]1C [Example 1112, (R)-8-((3S,5R)-4-acryloyl-3,5-dimethylpiperazin-1-yl)-11-(4-fluorophenyl)-3-morpholino-10-(trifluoromethyl)-3,4-dihydro-2H,6H-[1,4]thiazepino [2,3,4-ij]quinazolin-6-one] | – | % CAF 10 uM @ 60 min (60 min incubation): 92.4%
3 | C=CC(=O)N1CCN(c2nc(=O)n3c4c(c(-c5c(F)ccc6cnn(C)c56)c(C(F)(F)F)cc24)SC[C@@H]3COC)CC1 (atropisomer, axis not shown) [Example 1416, (3S,10R)-7-(4-acryloylpiperazin-1-yl)-10-(6-fluoro-1-methyl-1H-indazol-7-yl)-3-(methoxymethyl)-9-(trifluoromethyl)-2,3-dihydro-5H-[1,4]thiazino[2,3,4-ij]quinazolin-5-one] | 71.3 | –
4 | C=CC(=O)N1C[C@H](C)N(c2nc(=O)n3c4c(c(-c5cc(C=O)c(F)cc5F)c(C(F)(F)F)cc24)SCC2(COC2)C3)C[C@H]1C [Example 1425, 5-(8′-((2S,5R)-4-acryloyl-2,5-dimethylpiperazin-1-yl)-6′-oxo-10′-(trifluoromethyl)-2′H,4′H,6′H-spiro[oxetane-3,3′-[1,4]thiazepino[2,3,4-ij]quinazolin]-11′-yl)-2,4-difluorobenzaldehyde] | 69.2 | –
5 | C=CC(=O)N1[C@H](C)CN(c2nc(=O)n3c4c(c(-c5cc(Cl)c(F)cc5F)c(C(F)(F)F)cc24)SCC2(COC2)C3)C[C@@H]1C [Example 1100, 8′-((3S,5R)-4-acryloyl-3,5-dimethylpiperazin-1-yl)-11′-(5-chloro-2,4-difluorophenyl)-10′-(trifluoromethyl)-2′H,4′H,6′H-spiro[oxetane-3,3′-[1,4]thiazepino [2,3,4-ij]quinazolin]-6′-one] | – | % CAF 10 uM @ 60 min (60 min incubation): 88.8%
6 | C=CC(=O)N1[C@H](C)CN(c2nc(=O)n3c4c(c(-c5ncc(C(F)(F)F)s5)c(C(F)(F)F)cc24)SC[C@@H](OC)C3)C[C@@H]1C [Example 1216, (S)-8-((3S,5R)-4-acryloyl-3,5-dimethylpiperazin-1-yl)-3-methoxy-10-(trifluoromethyl)-11-(5-(trifluoromethyl)thiazol-2-yl)-3,4-dihydro-2H,6H-[1,4]thiazepino[2,3,4-ij]quinazolin-6-one] | – | CAF (% after 1 hour) (10 μM compound, after 1 hour): 94%
7 | C=CC(=O)N1CCN(c2nc(=O)n3c4c(c(-c5ccc(F)cc5F)c(C(F)(F)F)cc24)SC[C@@H]3CN2CCN(C3CC3)CC2)CC1 (atropisomer, axis not shown) [Example 1390, (3S,10R)-7-(4-acryloylpiperazin-1-yl)-3-((4-cyclopropylpiperazin-1-yl)methyl)-10-(2,4-difluorophenyl)-9-(trifluoromethyl)-2,3-dihydro-5H-[1,4]thiazino[2,3,4-ij]quinazolin-5-one] | 96.7 | –
8 | [2H]C([2H])=C([2H])C(=O)N1[C@H](C)CN(c2nc(=O)n3c4c(c(-c5ccc(F)cc5)c(C(F)(F)F)cc24)SC[C@@H]3COC)C[C@@H]1C [Example 1366] | 96.8 | –
9 | C=CC(=O)N1CCN(c2nc(=O)n3c4c(c(-c5cc(Cl)c(F)cc5F)c(C(F)(F)F)cc24)SCC2(COC2)C3)CC1 (atropisomer, axis not shown) [Example 1396, (R)-8′-(4-acryloylpiperazin-1-yl)-11′-(5-chloro-2,4-difluorophenyl)-10′-(trifluoromethyl)-2′H,4′H,6′H-spiro[oxetane-3,3′-[1,4]thiazepino[2,3-4-ij]quinazolin-6′-one] | 95.1 | –
10 | C=CC(=O)N1C[C@H](C)N(c2nc(=O)n3c4c(c(-c5ccc(F)cc5)c(C(F)(F)F)cc24)SC[C@@H]3COCOC)C[C@H]1C [Example 1328, (S)-7-((2S,5R)-4-acryloyl-2,5-dimethylpiperazin-1-yl)-10-(4-fluorophenyl)-3-((methoxymethoxy)methyl)-9-(trifluoromethyl)-2,3-dihydro-5H-[1,4]thiazino[2,3,4-ij]quinazolin-5-one] | 93.8 | –
11 | C=CC(=O)N1CCN(c2nc(=O)n3c4c(c(-c5ccc(F)cc5F)c(C(F)(F)F)cc24)SCC2(COC2)C3)CC1 [Example 1123, 8′-(4-acryloylpiperazin-1-yl)-11′-(2,4-difluorophenyl)-10′-(trifluoromethyl)-2′H,4′H,6′H-spiro[oxetane-3,3′-[1,4]thiazepino [2,3,4-ij]quinazolin]-6′-one] | – | % CAF 10 uM @ 60 min (60 min incubation): 95.2%
12 | C=CC(=O)N1C2CCC1CN(c1nc(=O)n3c4c(c(-c5cc(Cl)c(F)cc5F)c(C(F)(F)F)cc14)SCC1(COC1)C3)C2 [Example 1401, (R)-8′-((1R,5S)-8-acryloyl-3,8-diazabicyclo[3.2.1]octan-3-yl)-11′-(5-chloro-2,4-difluorophenyl)-10′-(trifluoromethyl)-2′H,4′H,6′H-spiro[oxetane-3,3′-[1,4]thiazepino[2,3,4-ij]quinazolin]-6′-one] | 76.6 | –
13 | C=CC(=O)N1CCN(c2nc(=O)n3c4c(c(-c5ccc(F)c(Cl)c5)c(C(F)(F)F)cc24)SC[C@@H]3COC)CC1 [Example 1345, (S)-7-(4-acryloylpiperazin-1-yl)-10-(3-chloro-4-fluorophenyl)-3-(methoxymethyl)-9-(trifluoromethyl)-2,3-dihydro-5H-[1,4]thiazino[2,3,4-ij]quinazolin-5-one] | 90 | –
14 | C=CC(=O)N1[C@H](C)CN(c2nc(=O)n3c4c(c(-c5ccc(F)cc5)c(C(F)(F)F)cc24)SCC2(COC2)C3)C[C@@H]1C [Example 1117, 8′-((3S,5R)-4-acryloyl-3,5-dimethylpiperazin-1-yl)-11′-(4-fluorophenyl)-10′-(trifluoromethyl)-2′H,4′H,6′H-spiro[oxetane-3,3′-[1,4]thiazepino [2,3,4-ij]quinazolin]-6′-one] | – | % CAF 10 uM @ 60 min (60 min incubation): 96.9%
15 | C=CC(=O)N1[C@H](C)CN(c2nc(=O)n3c4c(c(-c5cc(Cl)c(F)cc5F)c(C(F)(F)F)cc24)SC[C@H](N2CCCC2)C3)C[C@@H]1C [Example 1129, (3R)-8-((3S,5R)-4-acryloyl-3,5-dimethylpiperazin-1-yl)-11-(5-chloro-2,4-difluorophenyl)-3-(pyrrolidin-1-yl)-10-(trifluoromethyl)-3,4-dihydro-2H,6H-[1,4]thiazepino [2,3,4-ij]quinazolin-6-one] | – | % CAF 10 uM @ 60 min (60 min incubation): 69%

Second part, led by results:

Row | % CAF 10 uM @ 60 min (60 min) [%] | Compound | also measured
16 | 73 | C=CC(=O)N1[C@H](C)CN(c2nc(=O)n3c4c(c(-c5cc(Cl)c(F)cc5F)c(C(F)(F)F)cc24)SC[C@@H]3CN2CC[C@H](F)C2)C[C@@H]1C (atropisomer, axis not shown) [Example 1439, (3S,10R)-7-((3S,5R)-4-acryloyl-3,5-dimethylpiperazin-1-yl)-10-(5-chloro-2,4-difluorophenyl)-3-(((S)-3-fluoropyrrolidin-1-yl)methyl)-9-(trifluoromethyl)-2,3-dihydro-5H-[1,4]thiazino[2,3,4-ij]quinazolin-5-one] | –
17 | 93 | C=CC(=O)N1[C@H](C)CN(c2nc(=O)n3c4c(c(-c5cc(Cl)c(F)cc5F)c(C(F)(F)F)cc24)SCC(COC)(COC)C3)C[C@@H]1C (atropisomer, axis not shown) [Example 1420, (S)-8-((3S,5R)-4-acryloyl-3,5-dimethylpiperazin-1yl)-11-(5-chloro-2,4-difluorophenyl)-3,3-bis(methoxymethyl)-10-(trifluoromethyl)-3,4-dihydro-2H,6H-[1,4]thiazepino[2,3,4-ij]quinazolin-6-one] | –
18 | 90.1 | C=CC(=O)N1[C@H](C)CN(c2nc(=O)n3c4c(c(-c5ccc(F)cc5)c(C(F)(F)F)cc24)SC[C@@H]3COCC)C[C@@H]1C [Example 1415, (S)-7-((3S,5R)-4-acryloyl-3,5-dimethylpiperazin-1-yl)-3-(ethoxymethyl)-10-(4-fluorophenyl)-9-(trifluoromethyl)-2,3-dihydro-5H-[1,4]thiazino[2,3,4-ij]quinazolin-5-one] | –
